Structures are written as SMILES. pIC50: −log10 of the molar value. Some results are limits rather than exact numbers.

T1 sequence (Q13547 whole entry): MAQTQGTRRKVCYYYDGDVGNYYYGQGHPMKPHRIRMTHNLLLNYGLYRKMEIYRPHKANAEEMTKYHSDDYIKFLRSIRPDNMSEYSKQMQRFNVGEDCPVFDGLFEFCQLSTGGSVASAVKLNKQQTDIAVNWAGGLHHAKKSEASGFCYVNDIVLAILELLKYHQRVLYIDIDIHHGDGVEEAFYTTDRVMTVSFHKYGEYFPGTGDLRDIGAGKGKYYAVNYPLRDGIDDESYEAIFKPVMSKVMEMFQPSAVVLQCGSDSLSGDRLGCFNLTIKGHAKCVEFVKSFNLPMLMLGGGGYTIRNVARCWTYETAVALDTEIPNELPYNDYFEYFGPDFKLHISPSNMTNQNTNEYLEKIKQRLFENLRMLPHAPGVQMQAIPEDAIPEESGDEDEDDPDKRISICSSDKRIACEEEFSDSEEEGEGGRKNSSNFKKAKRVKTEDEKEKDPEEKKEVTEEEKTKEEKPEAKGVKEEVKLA

The first assay concerns the target Histone deacetylase. Put plainly: Inhibition of HDAC from human K562 cells. The class given is cell-based.
On to `O=C(CCCCCCc1ncc(-c2ccc(-c3ccc(Cl)cc3)cc2)o1)NO`, for which the IC50 (in general, the concentration that inhibits the measured activity by half) is reported as 6.8 nM.
The compound `COc1cccc(OC)c1-c1csc(CCCCCCC(=O)NO)n1` showed an IC50 of 4.3 nM. Compared with the last compound, the IC50 is about 1.6-fold lower.
The compound `O=C(CCCCCCc1nc(-c2ccccc2)cs1)NO` returned an IC50 of 19 nM.
The compound `O=C(CCCCCCc1nc(-c2ccc(C(F)(F)F)cc2)cs1)NO` registered an IC50 of 42 nM.
For `O=C(CCCCCCc1ncc(-c2ccccc2)o1)NO`, the concentration for half-maximal inhibition (IC50) came out at 9.8 nM.
For the compound `O=C(CCCCCCc1cnc(-c2ccc(Br)cc2)o1)NO`, the IC50 is given as 4.4 nM.
On the same count and under the same terms, the value for `O=C(CCCCCCc1nc(-c2ccc3ccccc3c2)cs1)NO` was 4.3 nM; that for `O=C(CCCCCCc1nc(-c2ccc(-c3ccccc3)cc2)cs1)NO` was 11 nM.
`COc1ccc(-c2cnc(CCCCCCC(=O)NO)o2)cc1` displayed a 50% inhibitory concentration (IC50) of 2.1 nM. This IC50 lies about 5.2-fold lower than the previous one.
Same read-out and setting: to `O=C(CCCCCCc1cnc(-c2ccc(-c3ccccc3)cc2)o1)NO` belongs 12 nM.
Compound `O=C(CCCCCCc1nc(-c2cccc(Br)c2)cs1)NO` registered an IC50 of 5.8 nM.
`O=C(CCCCCCc1nc(-c2ccc(Br)cc2)cs1)NO` gave an IC50 of 8.5 nM.
As to `O=C(CCCCCCc1cnc(-c2ccc(OC(F)(F)F)cc2)o1)NO`, the IC50 was found to be 89 nM.
With `COc1ccc(-c2csc(CCCCCCC(=O)NO)n2)cc1`, the concentration for half-maximal inhibition (IC50) was determined as 2.5 nM. This IC50 lies about 36-fold lower than the previous one.
Consider `O=C(CCCCCCc1ncc(-c2ccc(Br)cc2)o1)NO`, for which the IC50 is given as 2.7 nM.

The next assay addresses T1, Histone deacetylase 1 (Homo sapiens, UniProt Q13547).
Description: Inhibition of human HDAC1
For the compound `CC(=O)CCCCC[C@H](Nc1cncs1)C(=O)Nc1cccc(-c2ccccc2)c1`, the pIC50 (as a rule, the negative decadic logarithm of the IC50, by convention in mol/L) is 7.26.
In turn, `O=C(Nc1ccc2cc(C(=O)NO)sc2c1)c1ccc2ccccc2c1` gave a pIC50 of 7.10.
Same read-out and setting: the value for `CC(=O)CCCCC[C@H](NC1CCCCN1C)C(=O)Nc1cccc(-c2ccccc2)c1` (stereo not given in full) was 7.10; that for `COc1ccc2[nH]c(C)c(CN[C@@H](CCCCCC(C)=O)C(=O)Nc3nc(-c4ccccc4)cs3)c2c1` was 7.60.
As to `O=C(NO)c1cc2cc(NC(=O)c3cccc4ccccc34)ccc2s1`, the pIC50 is 5.97.

The next assay deals with T1, Histone deacetylase 1. Put plainly: Inhibition of HDAC1 from human HeLa cells. The assay is classed as cell-based.
`CC(=O)CCCCC[C@H](Nc1cncs1)C(=O)Nc1cccc(-c2ccccc2)c1` showed a pIC50 of 6.14.
Take `CC(=O)CCCCC[C@H](NC(=O)C1CCN(C)C1)C(=O)NCCc1c(-c2ccccc2)[nH]c2ccccc12` (stereo not given in full): the pIC50 is 5.70.
In turn, `CC(=O)CCCCC[C@H](NC(C)=O)C(=O)NCCc1c(-c2ccccc2)[nH]c2ccccc12` had a pIC50 of 5.12.
For the compound `CC(=O)CCCCC[C@H](NC1CCCCN1C)C(=O)Nc1cccc(-c2ccccc2)c1` (stereo not given in full), the pIC50 was 6.30.
In the case of `CC(=O)CCCCC[C@H](NC(=O)c1cncs1)C(=O)NCCc1c(-c2ccccc2)[nH]c2ccccc12`, the pIC50 was 5.52.
In turn, `COc1ccc2[nH]c(C)c(CN[C@@H](CCCCCC(C)=O)C(=O)Nc3nc(-c4ccccc4)cs3)c2c1` had a pIC50 of more than 6.41.
On the same count and under the same terms, the value for `CC(=O)CCCCC[C@H](NC(=O)C1CCCCN1C)C(=O)NCCc1c(-c2ccccc2)[nH]c2ccccc12` (stereo not given in full) was 5.60.
On to `CC(=O)CCCCC[C@H](NC(=O)C1CCCN(C)C1)C(=O)NCCc1c(-c2ccccc2)[nH]c2ccccc12` (stereo not given in full), for which the pIC50 was 5.70.

The next assay deals with HT-1080. Put plainly: Inhibition of human HT1080 cells. The class given is functional, cell-based.
The compound `O=C(CCCCCCc1ncc(-c2ccc(-c3ccc(Cl)cc3)cc2)o1)NO` had a pIC50 of 6.18.
`COc1cccc(OC)c1-c1csc(CCCCCCC(=O)NO)n1`: the pIC50 is 5.70.
Still for that read-out and setting: the value for `O=C(CCCCCCc1nc(-c2ccccc2)cs1)NO` was 5.29; that for `O=C(CCCCCCc1nc(-c2ccc(C(F)(F)F)cc2)cs1)NO` was 5.62; that for `O=C(CCCCCCc1ncc(-c2ccccc2)o1)NO` was 5.08.
For `O=C(CCCCCCc1cnc(-c2ccc(Br)cc2)o1)NO`, the pIC50 is 4.57.
Still for that read-out and setting: the value for `O=C(CCCCCCc1nc(-c2ccc3ccccc3c2)cs1)NO` was 5.62.
`O=C(CCCCCCc1nc(-c2ccc(-c3ccccc3)cc2)cs1)NO` gave a negative logarithm of the IC50 (pIC50) of 5.88. Compared with the last compound, the pIC50 is 0.26 log units higher.
On the same count and under the same terms, the value for `COc1ccc(-c2cnc(CCCCCCC(=O)NO)o2)cc1` was 6.51; that for `O=C(CCCCCCc1cnc(-c2ccc(-c3ccccc3)cc2)o1)NO` was 4.82.
`O=C(CCCCCCc1nc(-c2cccc(Br)c2)cs1)NO`: the negative logarithm of the IC50 (pIC50) was 5.00.
The compound `O=C(CCCCCCc1nc(-c2ccc(Br)cc2)cs1)NO` had a pIC50 of 5.25.
`O=C(CCCCCCc1cnc(-c2ccc(OC(F)(F)F)cc2)o1)NO`: the pIC50 was 5.29.
Consider `COc1ccc(-c2csc(CCCCCCC(=O)NO)n2)cc1`, for which the pIC50 is 5.44.
Compound `O=C(CCCCCCc1ncc(-c2ccc(Br)cc2)o1)NO` gave a pIC50 of 5.11.

The next assay deals with MKN-45. Kind of assay: Antiproliferative activity against human MKN45 cells. The assay is classed as functional, cell-based.
Take `O=C(NO)c1ccc(-c2ccn(CCOc3ccccc3)n2)s1`: the pIC50 was 5.82.
The compound `Cn1c(CNCCn2ccc(-c3ccc(C(=O)NO)s3)n2)cc2ccccc21` showed a pIC50 of 6.43.
On to `O=C(NO)c1ccc(-c2ccn(CCNCc3ccc4[nH]ccc4c3)n2)s1`, for which the pIC50 was 6.55.
`O=C(NO)c1ccc(-c2ccn(CCOCc3ccccc3)n2)s1` showed a negative logarithm of the IC50 (pIC50) of 6.12.
The same measure, in the same setting: the value for `Cn1nc(C(F)(F)F)cc1-c1ccc(C(=O)NO)s1` was 4.50; that for `COc1ccc(CNCCn2ccc(-c3ccc(C(=O)NO)s3)n2)cc1` was 6.26.
`O=C(NO)c1ccc(-c2ccn(CCNCc3ccccc3)n2)s1` had a pIC50 of 5.74.

(Values after ChEMBL document CHEMBL1142268, “Histone deacetylase inhibitors: from bench to clinic” (J Med Chem, 2008).)
